These results are taken from PMC10741632, “Detection of Dibutyl Phthalate in Surface Water by Fluorescence Polarization Immunoassay” (Biosensors, 2023).

The test relates to monoclonal antibody against DBP (MAb-DBP). Nature of the test: competitive fluorescence polarization immunoassay with DBP-AMF tracer ([…] MAb-DBP, […] tracer). In kind it is binding, Mus musculus.

In brackets after ≈: the same amount, converted by molar mass.

The compound `CCCCOC(=O)c1ccccc1C(=O)OCCCC` [Dibutyl phthalate] showed an IC50 of 0.04 ± 0.002 mg/L (≈ 0.144 µM).

One may read the IC50 as the midpoint of a concentration-inhibition curve.
